Experimental data published in patent publication US10639382B2, “Method for treating leukemia” (National Guard Health Affairs, priority 2017, dated 2020).
Where a name gives a salt, the structure may show the parent alone.

How the values were obtained:
Assay type in all cases: cell-based, human
PBMCs from ALL patients = test: Primary screening of FDA approved drug library, TitreGlo/CellTiter-Glo cell viability, PBMCs from ALL patients; conditions: compound 10 uM, PBMCs from ALL patients, average over patients, relative to high control (0%) and no-cell low control (100%); for inhibition at 10 µM: Homo sapiens, PBMC, read-out: % Inhibition, ALL Average
Method: (§1) Whole blood was taken from experimental group patients and control group patients. The collected blood was transferred to EDTA tubes with a 5 mL pipette and a pipette aid and then to each EDTA tubes corresponding 50 ml centrifuge tubes. All the blood from one patient was placed into 1 tube (50 mL) and an equal volume of PBS was added to the 50 mL centrifuge tube. The sample was then mixed by either inverting the tube or pipetting up & down. The blood was transferred into tow 50 mL leucosep tube and centrifuged at room temperature (18-20° C.) for 15 minutes at 800×g with the brake turned off and acceleration at 2/deceleration at zero. After centrifugation, the white cell interface (buffy coat) was removed by pasture pipette and transferred to the new appropriately labelled 50 ml centrifuge tube. 25 mL PBS was added to the white cell interface (buffy coat) and the mix was centrifuged for 10 minutes at room temperature at 400×g with the brake off and acceleration at 4 & deceleration at 2. The supernatant was discarded from the pellet carefully in an appropriate manner. The pellet was washed another time with 20 mL by centrifugation for 5 minutes as above. The pellet was re-suspended in 5 mL and cells were counted using V-Cell. The cells were then either used directly as fresh for screening or frozen in liquid nitrogen in 10% DMSO/RPMPI media until use.
(§2) The assay used for TitreGlo (Promega) to measure cell viability based on the ATP production. […] The assay was developed in a 384-well plate with 2500 cell/well in 50 uL total volume. Alternatively, the assay could be developed in a 96-well plate with 10,000 cells/well. […] Z′ as a statistics factor was calculated as follows:
(§3) Each compound from the ENZO FDA SCREEN-WELL® FDA approved drug library V2 (0.10 μl in 100% DMSO) was transferred to white, 384-well, PS, Cellstar plates (Greiner Bio-One) using the Echo® Liquid Handler (Labcyte Inc.). Each plate contained one column for the High/Low Controls. The Low Control (1% DMSO v/v in column 23, no cells) and the High Control (final 1% DMSO v/v in column 24, with cells) were employed to calculate the Z′ for each assay plate. […] At 24 h post seeding, baseline growth was assessed using a control plate and CellTiter-Glo (CTG) reagent (Promega Corporation). Briefly, 20 μL/well of CTG detection mix was added and plates were read using an EnVision Multimode plate reader (PerkinElmer) after 10 min incubation in the dark. The raw luminescence signal was normalized in ActivityBase XE with outliers in control wells eliminated according to the 3-sigma method to yield percentage of cell viability by using the High Control (HC) containing cells in 1% DMSO v/v (Carl Roth) and the Low Control containing 1% DMSO v/v (Carl Roth). All Medium-Throughput Screening experiments were performed in duplicate for each patient. […] The raw luminescence signal was processed using Graph Pad Prism (Graph Pad Software Inc.) with outliers in control wells eliminated according to the 3-sigma method. The dose-response curves were analyzed using a 4 parameter sigmoidal fit to obtain plausible results in the case non-sigmoidal dose-response curves.
(§4) The Screen-Well FDA approved drug library was screened, which contains 780 approved drugs. […] The final DMSO concentration in the assay plate was 0.1% of total volume. […] The average of all four control samples was then calculated and used to determine the positive “hits” in patients' samples.
(§5) Each average patient samples were plotted against average of the control samples to identify the positive hits.

PBMCs from AML patients = test: Primary screening of FDA approved drug library, TitreGlo/CellTiter-Glo cell viability, PBMCs from AML patients; conditions: compound 10 uM, PBMCs from AML patients, average over patients, relative to high control (0%) and no-cell low control (100%); for inhibition at 10 µM: Homo sapiens, PBMC, read-out: % Inhibition, AML Average
Method: as §1, §2, §3, §4, §5

PBMCs from CLL patients = test: Primary screening of FDA approved drug library, TitreGlo/CellTiter-Glo cell viability, PBMCs from CLL patients; conditions: compound 10 uM, PBMCs from CLL patients, average over patients, relative to high control (0%) and no-cell low control (100%); for inhibition at 10 µM: Homo sapiens, PBMC, read-out: % Inhibition, CLL Average
Method: as §1, §2, §3, §4, §5

PBMCs from CML patients = test: Primary screening of FDA approved drug library, TitreGlo/CellTiter-Glo cell viability, PBMCs from CML patients; conditions: compound 10 uM, PBMCs from CML patients, average over patients, relative to high control (0%) and no-cell low control (100%); for inhibition at 10 µM: Homo sapiens, PBMC, read-out: % Inhibition, CML Average
Method: as §1, §2, §3, §5
Samples from 4 patients were screened against the FDA approved drug library where the Negative Control (High control) contained cells treated with DMSO and the Positive Control (Low control) were based using no cells. The screening was carried out in 96 well plates. The raw luminescence counts were normalized and the % Inhibition was calculated relative to the high control (0% Inhibition) and the low control (100% Inhibition).

Compound	inhibition at 10 µM (PBMCs from ALL patients)	inhibition at 10 µM (PBMCs from AML patients)	inhibition at 10 µM (PBMCs from CLL patients)	inhibition at 10 µM (PBMCs from CML patients)	% Inhibition, ALL Average (PBMCs from ALL patients)	% Inhibition, AML Average (PBMCs from AML patients)	% Inhibition, CLL Average (PBMCs from CLL patients)	% Inhibition, CML Average (PBMCs from CML patients)
CC(C)(C)NC[C@H](O)COc1cccc2c1CCCC2=O [Levobunolol HCl]	-8%	1.8%	49.6%	-32.1%				
Ivermectin					70.4%	60.2%	66.0%	79.3%
Clc1ccc(COC(Cn2ccnc2)c2ccc(Cl)cc2Cl)c(Cl)c1 (stereo not drawn) [Miconazole]	-35.1%	38.1%	-3.3%	69.9%				
COc1cccc2c1C(=O)c1c(O)c3c(c(O)c1C2=O)C[C@@](O)(C(=O)CO)C[C@@H]3O[C@H]1C[C@H](N)[C@@H](O)[C@H](C)O1 [Epirubicin HCl]	74.4%	67.1%	64.3%	5%				
CN(C)C(=O)C(CCN1CCC(O)(c2ccc(Cl)cc2)CC1)(c1ccccc1)c1ccccc1 [Loperamide HCl]	54.9%	18.5%	16.3%	69.3%				
Cc1ncc([N+](=O)[O-])n1CCO [Metronidazole]	-23.9%	-25.2%	31%	-17.3%				
O=C(NCC1CCCCN1)c1cc(OCC(F)(F)F)ccc1OCC(F)(F)F (stereo not drawn) [Flecainide Acetate]	-18.3%	13%	50.2%	-1%				
[H]/N=C(\N/C(=N/[H])NCCCCCCNC(=N)NC(=N)Nc1ccc(Cl)cc1)Nc1ccc(Cl)cc1 [Chlorhexidine Dihydrochloride]	53.6%	26.9%	70.3%	59.9%				
CO[C@H]1C[C@@H]2CC[C@@H](C)[C@@](O)(O2)C(=O)C(=O)N2CCCC[C@H]2C(=O)O[C@H]([C@H](C)C[C@@H]2CC[C@@H](OC(=O)C(C)(CO)CO)[C@H](OC)C2)CC(=O)[C@H](C)/C=C(\C)[C@@H](O)[C@@H](OC)C(=O)[C@H](C)C[C@H](C)/C=C/C=C/C=C/1C [Temsirolimus]	-6.4%	1.6%	26.6%	7%				
CC(=O)[C@]1(O)Cc2c(O)c3c(c(O)c2[C@@H](O[C@H]2C[C@H](N)[C@H](O)[C@H](C)O2)C1)C(=O)c1ccccc1C3=O [Idarubicin HCl]	73.5%	79%	54.8%	43.5%				
OC(c1cc(C(F)(F)F)nc2c(C(F)(F)F)cccc12)C1CCCCN1 (stereo not drawn) [Mefloquine HCl]	87.7%	72.7%	50.5%	90.4%				
Nc1nc(Cl)nc2c1ncn2[C@@H]1O[C@H](CO)[C@@H](O)[C@@H]1F [Clofarabine]	68.1%	-20.6%	41.3%	21.9%				
Nc1nc(F)nc2c1ncn2[C@@H]1O[C@H](COP(=O)(O)O)[C@@H](O)[C@@H]1O [Fludarabine Phosphate]	53.9%	21.8%	17.3%	19.1%				
NC(N)=Nc1nc(CSCCC(N)=NS(N)(=O)=O)cs1 [Famotidine]	13.4%	5.3%	39.2%	17.1%				
Clc1ccc(CCC(Cn2ccnc2)Sc2c(Cl)cccc2Cl)cc1 (stereo not drawn) [Butoconazole Nitrate]	40.7%	46.6%	44.1%	58.5%				
O=C1c2c(O)ccc(O)c2C(=O)c2c(NCCNCCO)ccc(NCCNCCO)c21 [Mitoxantrone HCl]	73.7%	68.8%	71.1%	72.6%				
CSc1ccc2c(c1)N(CCC1CCCCN1C)c1ccccc1S2 (stereo not drawn) [Thioridazine HCl]	23.1%	27%	-40.9%	70.3%				
CCCCCCCCc1ccc(CCC(N)(CO)CO)cc1 [Fingolimod]	58.9%	81.5%	47.9%	76.1%				
